# Measurements: US11091749B2, “Deimmunized lysostaphin and methods of use” (TRUSTEES OF DARTMOUTH COLLEGE, priority 2014, dated 2021)
# How the values were obtained:
# MRSA strain 3425-3 = test: MIC assay; assay type: cell-based, Staphylococcus aureus; settings: biological duplicates
# Method: (§1) The MICs of wild-type lysostaphin and its variants were determined by adding 2-fold serial dilutions of enzymes into wells of a polypropylene 96-well plate (Costar 3879) containing ˜40,000 S. aureus SA113 (or S. aureus 6445, 3425-1, 3425-3) cells in Muller Hinton broth (BD) supplemented with 2% NaCl and 0.1% bovine serum albumin, yielding a total volume of 100 μl. Plates were grown overnight at 37° C. with shaking at 900 rpm on an Orbit P4 orbital shaker (Labnet; Edison, N.J.). […] The assay was performed in triplicate for each enzyme.
# S. aureus 3425-1 = test: MIC assay; assay type: cell-based, Staphylococcus aureus; settings: biological duplicates
# Method: as §1
# S. aureus SA113 = test: MIC assay; assay type: cell-based, Staphylococcus aureus
# Method: as §1
# S. aureus 6445 = test: MIC assay; assay type: cell-based, Staphylococcus aureus; settings: biological duplicates
# pooled splenocytes = test: Transgenic DR4 murine immunogenicity study (memory response, splenocyte proliferation); assay type: in vivo; settings: wild-type LST primed mice, 100 μg rechallenge
# Method: Twelve female 6-8 week old DR4 transgenic mice (Abb Knockout/Transgenic HLA-DR4; B6.129S2-H2-Ab1tm1GruTg(HLA-DRA/H2-Ea,HLA-DRB1*0401/H2-Eb)1Kito; Taconic Farms, Germantown, N.Y.) were divided into four groups of three each and immunized with 50 μl subcutaneous injections of wild-type LST using one of the following four schemes: (i) initial immunization with 100 μg enzyme in CFA, followed by 100 μg boosts in incomplete Freund's adjuvant (IFA) on days 14 and 28; (ii) initial immunization with 20 μg enzyme in CFA, followed by 20 μg boosts in IFA on days 14 and 28; (iii) initial immunization with 100 μg enzyme in PBS buffer, followed by 100 μg boosts in PBS buffer on days 7, 14, 21 and 28; (iv) initial immunization with 20 μg enzyme in PBS buffer, followed by 20 μg boosts in PBS buffer on days 7, 14, 21 and 28. Serum IgG antibody titers against wild-type LST were measured on days 13, 20, 27, 34, and 62. […] Mice were housed without further manipulation until week 23 of the study, at which time serum IgG antibody titers were again measured and mice were divided into two experimental arms having equivalent average antibody titers. Note that during the week 9 to week 23 recovery period, two mice (the lowest titer 100 μg no adjuvant and one of the high titer 100 μg adjuvant) began suffering hair loss, weight loss, and reduced mobility and were sacrificed as per the IACUC approved protocol. […]
# MRSA strain USA400 [1] = test: In vitro inhibitory activity (MIC); assay type: cell-based, Staphylococcus aureus; settings: 50° C. for 1 hour prior to assay
# Text: F11, P12 and F13 were screened for in vitro inhibitory activity against MRSA strain USA400 (FIG. 7).
# MRSA strain USA400 [2] = test: In vivo efficacy of F11, intraperitoneal MRSA challenge; design: species or system C57BL/6 mice; settings: 100 μg single bolus i.v. 1 h after 2×10^8 MRSA i.p.
# Method: Mice were challenged with an intraperitoneal injection of 2×10^8 MRSA strain USA400, and 1 hour later the mice were treated with 100 μg wild-type LST, F11 or PBS. The percent survival is shown.
# The in vivo efficacy of the F11 variant was further analyzed in C57BL/6 mice. Mice were challenged with an intraperitoneal injection of 2×10^8 MRSA strain USA400, and 1 hour later the mice were treated with 100 μg wild-type LST, F11 or PBS, administered as a single bolus intravenous injection. The survival rate for both protein treatments was 1/3. The 100 μg dosage was selected because wild-type LST is known to be only partially efficacious at this dose.
substance,measurement,setting,value
Wild-Type: wild-type lysostaphin (SEQ ID NO:49) produced in P. pastoris; aglycosylated Ser126Pro backbone in the design studies [reference compound],MIC Strain 3425-3,MRSA strain 3425-3,0.03 µg/mL
same,MIC Strain 3425-1,S. aureus 3425-1,0.04 µg/mL
same,MIC,"S. aureus SA113; S. aureus SA113, purified enzyme",0.0351 µg/mL
same,MIC Strain SA113,S. aureus SA113; biological duplicates,0.02 µg/mL
same,MIC Strain 6445,S. aureus 6445,0.03 µg/mL
same,stimulation index,pooled splenocytes,1.8 fold
same,retained original MIC activity after heating,MRSA strain USA400 [1],full
same,survival rate,MRSA strain USA400 [2],1/3
